Drawing on PubChem BioAssay AID248 (DTP/NCI, 2004), this text covers T/C for 20 molecules.

Several values for one entry are separate records, joined by “and”; a condition that tells them apart may be missing. Identical values can stand only once. Inconclusive results and toxic doses are left out.

The assay deals with L1210 leukemia ip in BDF1 mice, survival T/C. The assay can be described thus: NCI In Vivo Anticancer Drug Screen. Data for tumor model L1210 Leukemia (intraperitoneal) in B6D2F1 (BDF1) mice. Conditions: endpoint: mean survival time, higher = longer survival. The essentials:
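Survival endpoint. Drug-treated group vs vehicle group, expressed as T divided by C. Tumor passaged by transplantation.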

The mark [1] stands for this setting: dose: 100.0 mg/kg/injection, schedule: Q01DX001 (ip), vehicle: saline.
The mark [2] stands for this setting: dose: 200.0 mg/kg/injection, schedule: Q01DX001 (ip), vehicle: saline.
Where [3] appears, read: dose: 400.0 mg/kg/injection, schedule: Q01DX001 (ip), vehicle: saline.
Setting [4] is: dose: 100.0 mg/kg/injection, schedule: Q04DX003 (ip), vehicle: saline with Tween-80.
The mark [5] stands for this setting: dose: 200.0 mg/kg/injection, schedule: Q04DX003 (ip), vehicle: saline with Tween-80.
Where [6] appears, read: dose: 25.0 mg/kg/injection, schedule: Q04DX002 (ip), vehicle: saline with Tween-80.
Where [7] appears, read: dose: 50.0 mg/kg/injection, schedule: Q04DX002 (ip), vehicle: saline with Tween-80.
[8] abbreviates: dose: 100.0 mg/kg/injection, schedule: Q04DX002 (ip), vehicle: saline with Tween-80.
[9] abbreviates: dose: 100.0 mg/kg/injection, schedule: Q01DX009 (ip), vehicle: saline with Tween-80.
Where [10] appears, read: dose: 200.0 mg/kg/injection, schedule: Q01DX009 (ip), vehicle: saline with Tween-80.
Where [11] appears, read: dose: 400.0 mg/kg/injection, schedule: Q01DX009 (ip), vehicle: saline with Tween-80.
Where [12] appears, read: dose: 400.0 mg/kg/injection, schedule: Q04DX003 (ip), vehicle: saline with Tween-80.
Setting [13] is: dose: 50.0 mg/kg/injection, schedule: Q01DX001 (ip), vehicle: saline.

As to `O=C(C1CCC2c3ccccc3CCC2C1C(=O)N1CCCCC1)N1CCCCC1` (stereo not drawn), the T/C runs as follows: (dose: 50.0 mg/kg/injection, schedule: Q01DX001 (ip), vehicle: carboxymethylcellulose (CMC)) 103 % of control; (dose: 100.0 mg/kg/injection, schedule: Q01DX001 (ip), vehicle: carboxymethylcellulose (CMC)) 101 % of control; (dose: 200.0 mg/kg/injection, schedule: Q01DX001 (ip), vehicle: carboxymethylcellulose (CMC)) 108 % of control.

In the case of `Nc1ccc(-c2ccc3ccccc3n2)cc1`, the T/C was 92 % of control (dose: 12.0 mg/kg/injection, schedule: Q01DX009 (ip), vehicle: Klucel (hydroxypropylcellulose) (HPC)); 94 % of control (dose: 25.0 mg/kg/injection, schedule: Q01DX009 (ip), vehicle: Klucel (hydroxypropylcellulose) (HPC)); 112 % of control (dose: 100.0 mg/kg/injection, schedule: Q04DX003 (ip), vehicle: Klucel (hydroxypropylcellulose) (HPC)); 103 % of control (dose: 200.0 mg/kg/injection, schedule: Q04DX003 (ip), vehicle: Klucel (hydroxypropylcellulose) (HPC)).

As to `COC(=O)C(N)Cc1ccc(OC)c(N(CCCl)CCCl)c1` (stereo not drawn), the T/C was 106 % of control (dose: 0.01 mg/kg/injection, schedule: Q01DX009 (ip), vehicle: saline); 116 % of control (dose: 0.02 mg/kg/injection, schedule: Q01DX009 (ip), vehicle: saline); 110 % of control (dose: 0.05 mg/kg/injection, schedule: Q01DX009 (ip), vehicle: saline); 121 % of control (dose: 0.1 mg/kg/injection, schedule: Q01DX009 (ip), vehicle: saline); 155 % of control (dose: 0.3 mg/kg/injection, schedule: Q01DX009 (ip), vehicle: saline); 106 % of control (dose: 0.62 mg/kg/injection, schedule: Q01DX001 (ip), vehicle: saline). Also, the T/C runs as follows: (dose: 1.25 mg/kg/injection, schedule: Q01DX001 (ip), vehicle: saline) 98 % of control; (dose: 1.5 mg/kg/injection, schedule: Q01DX001 (ip), vehicle: carboxymethylcellulose (CMC)) 115 % of control; (dose: 1.5 mg/kg/injection, schedule: Q01DX009 (ip), vehicle: saline) 151 % of control; (dose: 2.5 mg/kg/injection, schedule: Q01DX001 (ip), vehicle: saline) 106 % of control and 122 % of control; (dose: 2.9 mg/kg/injection, schedule: Q01DX001 (ip), vehicle: saline) 105 % of control; (dose: 2.9 mg/kg/injection, schedule: Q01DX009 (ip), vehicle: saline) 230 % of control. Besides, the T/C was 120 % of control (dose: 3.0 mg/kg/injection, schedule: Q01DX001 (ip), vehicle: carboxymethylcellulose (CMC)); 123 % of control (dose: 3.0 mg/kg/injection, schedule: Q01DX009 (ip), vehicle: saline); 104 % of control (dose: 4.4 mg/kg/injection, schedule: Q01DX001 (ip), vehicle: saline); 108 % of control (dose: 4.4 mg/kg/injection, schedule: Q01DX009 (ip), vehicle: saline); 111 % of control and 124 % of control (dose: 5.0 mg/kg/injection, schedule: Q01DX001 (ip), vehicle: saline); 108 % of control (dose: 6.0 mg/kg/injection, schedule: Q01DX001 (ip), vehicle: carboxymethylcellulose (CMC)). The T/C was 109 % of control (dose: 6.6 mg/kg/injection, schedule: Q01DX001 (ip), vehicle: saline) and 107 % of control (dose: 10.0 mg/kg/injection, schedule: Q01DX001 (ip), vehicle: saline).

For `CC1(C)OC(=O)C(C#N)C1c1ccc(Cl)cc1` (stereo not drawn), the T/C under setting [1] is 101 % of control, the T/C under setting [2] is 95 % of control and the T/C under setting [3] was 95 % of control.

For `C=C(C)C(=NC)Nc1ccc(Cl)c(Cl)c1`, the T/C was 98 % of control (dose: 222.0 mg/kg/injection, schedule: Q01DX Z (ip), vehicle: methylcellulose (MC)); 91 % of control (dose: 333.0 mg/kg/injection, schedule: Q01DX Z (ip), vehicle: methylcellulose (MC)); 93 % of control (dose: 500.0 mg/kg/injection, schedule: Q01DX Z (ip), vehicle: methylcellulose (MC)).

On to `CC(C)(C)CC(C)(C)c1ccc(OCCOS(=O)(=O)c2cccc([N+](=O)[O-])c2)cc1`, for which the T/C was 94 % of control under setting [4] and 90 % of control under setting [5].

Regarding `CC12CCC(O)CC1CCC1C2CCC2(C)C1CC1NC12` (stereo not drawn), the T/C (dose: 100.0 mg/kg/injection, schedule: Q01DX001 (sc), vehicle: steriod suspending solution) is 92 % of control and the T/C (dose: 200.0 mg/kg/injection, schedule: Q01DX001 (sc), vehicle: steriod suspending solution) is 94 % of control.

Take `CCCCCP(=O)(CCCCC)CCCCC`: the T/C is 100 % of control under setting [6]; 94 % of control under setting [7]; 98 % of control and 106 % of control under setting [8].

On to `N#CC(C#N)N=O` (tested in a mixture with another compound), for which the T/C was 89 % of control (dose: 25.0 mg/kg/injection, schedule: Q04DX002 (ip), vehicle: saline); 101 % of control (dose: 50.0 mg/kg/injection, schedule: Q04DX002 (ip), vehicle: saline); 95 % of control and 97 % of control (dose: 100.0 mg/kg/injection, schedule: Q04DX002 (ip), vehicle: saline); 105 % of control (dose: 200.0 mg/kg/injection, schedule: Q04DX002 (ip), vehicle: saline).

In the case of `CC(=O)OC1C=CCC2C(=O)c3c(c(O)c4ccccc4c3O)C(=O)C12` (stereo not drawn), the T/C was 95 % of control under setting [9]; 95 % of control under setting [4]; 105 % of control under setting [10]; 95 % of control under setting [5]; 100 % of control under setting [11]; 90 % of control under setting [12].

For the molecule `C1CN2CCOB(O1)OCC2`, the T/C reads like this: (dose: 69.0 mg/kg/injection, schedule: Q01DX009 (ip), vehicle: other) 103 % of control; (dose: 138.0 mg/kg/injection, schedule: Q01DX009 (ip), vehicle: other) 98 % of control; (dose: 275.0 mg/kg/injection, schedule: Q01DX009 (ip), vehicle: other) 98 % of control.

Regarding `Cc1ccc2c(c1)CCCN2C=O`, the T/C was 95 % of control (dose: 50.0 mg/kg/injection, schedule: Q01DX009 (ip), vehicle: saline with Tween-80); 93 % of control under setting [9]; 102 % of control under setting [4]; 102 % of control under setting [10]; 94 % of control under setting [5].

`O=C(Oc1ccccc1Cl)c1ccccc1`: the T/C is 113 % of control under setting [9] and 116 % of control under setting [10].

With `CCCCCCN(CCCCCC)C(F)(F)C(=O)Nc1ccc(S(=O)(=O)c2ccc(NC(=O)C(F)(F)N(CCCCCC)CCCCCC)cc2)cc1`, the T/C (dose: 12.5 mg/kg/injection, schedule: Q01DX001 (ip), vehicle: saline) was 105 % of control; the T/C (dose: 25.0 mg/kg/injection, schedule: Q01DX001 (ip), vehicle: saline) was 100 % of control; the T/C under setting [13] is 107 % of control.

Take `O=C(Nc1ccccc1)C1C2C=CC(C2)C1C(=O)Nc1ccccc1` (stereo not drawn): the T/C by setting is: under setting [4], 93 % of control and 103 % of control; under setting [5], 95 % of control and 87 % of control; under setting [12], 91 % of control.

Consider `Cc1cc(Cl)c(Cl)cc1NC(=O)c1ccccc1Cl`, for which the T/C (dose: 100.0 mg/kg/injection, schedule: Q04DX002 (ip), vehicle: Klucel (hydroxypropylcellulose) (HPC)) was 97 % of control; the T/C (dose: 200.0 mg/kg/injection, schedule: Q04DX002 (ip), vehicle: Klucel (hydroxypropylcellulose) (HPC)) is 97 % of control; the T/C (dose: 400.0 mg/kg/injection, schedule: Q04DX002 (ip), vehicle: Klucel (hydroxypropylcellulose) (HPC)) is 94 % of control.

`CCC[CH2][Sn]([CH2]CCC)([CH2]CCC)[CH2]C(C)(C)c1ccccc1`: the T/C (dose: 75.0 mg/kg/injection, schedule: Q01DX001 (ip), vehicle: other) was 91 % of control.

Turning to `CCCCC(C=O)(CCN1CCCC1)c1cccc2ccccc12` (stereo not drawn), the T/C by setting is: under setting [6], 88 % of control; under setting [7], 100 % of control; under setting [8], 103 % of control.

For the molecule `Clc1cccc(-c2nc3ccccc3c3ccccc23)c1`, the T/C is, setting by setting: under setting [9], 90 % of control; under setting [10], 100 % of control; under setting [11], 103 % of control.

`COc1ccc(C2NC(=O)NC2=O)cc1` (stereo not drawn): the T/C under setting [13] was 105 % of control; the T/C under setting [1] was 105 % of control; the T/C under setting [4] was 108 % of control; the T/C under setting [2] was 102 % of control; the T/C under setting [5] was 103 % of control; the T/C under setting [3] was 111 % of control. The T/C under setting [12] was 92 % of control.
